{"source": "patent US20240360194A1", "about": "“New Peptides as Potent and Selective GIP Receptor Agonists” (Sanofi, priority 2021, published 2024)", "key": {"human GIP receptor [1]": {"molecular_target": "T1, human GIP receptor (Homo sapiens, UniProt P48546)", "T1 construct": "human adipocytes endogenously expressing the human GIP receptor; host or cells: human preadipocytes (Lonza) differentiated to adipocytes", "T1 sequence (P48546 22-466)": "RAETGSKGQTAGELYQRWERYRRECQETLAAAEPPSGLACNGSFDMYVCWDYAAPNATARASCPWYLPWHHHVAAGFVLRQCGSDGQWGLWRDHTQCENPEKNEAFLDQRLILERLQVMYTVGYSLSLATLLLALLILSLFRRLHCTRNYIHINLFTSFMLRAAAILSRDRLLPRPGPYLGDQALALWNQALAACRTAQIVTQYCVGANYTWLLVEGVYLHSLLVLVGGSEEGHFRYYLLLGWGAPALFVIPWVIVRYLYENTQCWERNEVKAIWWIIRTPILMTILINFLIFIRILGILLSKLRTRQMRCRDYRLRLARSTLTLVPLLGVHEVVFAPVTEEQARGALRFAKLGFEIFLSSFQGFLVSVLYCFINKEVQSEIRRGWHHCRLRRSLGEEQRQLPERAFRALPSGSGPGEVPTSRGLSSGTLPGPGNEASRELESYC", "assay": "In vitro cellular cAMP assay for GIP receptor efficacy (human adipocytes)", "type": "cell-based", "procedure,_shortened": "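cAMP is read by HTRF (665/620 nm ratio, 1 h after reagents in lysis buffer) following 30 min compound exposure at room temperature. Cells are human preadipocyte-derived adipocytes, differentiated 6 days with insulin, dexamethasone, IBMX (200 μM), PPARγ agonist and L-thyroxine, seeded 5000 per well.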"}, "[2]": {"molecular_target": "human GLP-1 receptor (hGLP-1R) (Homo sapiens, UniProt P43220)", "sequence (P43220 24-463)": "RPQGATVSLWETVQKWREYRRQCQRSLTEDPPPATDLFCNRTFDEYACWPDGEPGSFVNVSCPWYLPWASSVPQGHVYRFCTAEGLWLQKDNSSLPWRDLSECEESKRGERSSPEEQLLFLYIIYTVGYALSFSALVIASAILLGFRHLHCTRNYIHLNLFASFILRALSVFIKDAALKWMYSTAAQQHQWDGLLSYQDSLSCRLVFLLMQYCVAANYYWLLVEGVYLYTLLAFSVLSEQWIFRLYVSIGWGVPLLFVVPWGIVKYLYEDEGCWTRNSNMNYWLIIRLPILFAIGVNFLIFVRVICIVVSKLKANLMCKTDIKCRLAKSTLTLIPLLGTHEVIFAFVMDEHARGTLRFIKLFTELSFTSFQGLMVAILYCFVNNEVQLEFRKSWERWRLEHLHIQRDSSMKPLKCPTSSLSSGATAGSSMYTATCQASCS", "assay": "In vitro cellular cAMP assay for GLP-1 receptor efficacy (HEK-293 cell line over-expressing receptor)", "type": "cell-based", "settings": "HEK-293, 0.1% BSA"}, "[3]": {"assay": "Solubility assessment (UHPLC-UV of supernatant, target 10 mg/ml)", "type": "physicochemical", "procedure,_shortened": "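Peptides at 10 mg/ml (purity-corrected) in 100 mM phosphate pH 7.4, optionally with 2.7 mg/ml m-cresol; gentle agitation 1 h, then 5° C. overnight (24 h). Supernatant after 15 min centrifugation at 2500 RCF quantified by UHPLC-UV, with sequence-based extinction coefficients.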"}, "[4]": {"molecular_target": "T2, human GIP receptor (hGIPR) (Homo sapiens, UniProt P48546)", "T2 sequence (P48546 22-466)": "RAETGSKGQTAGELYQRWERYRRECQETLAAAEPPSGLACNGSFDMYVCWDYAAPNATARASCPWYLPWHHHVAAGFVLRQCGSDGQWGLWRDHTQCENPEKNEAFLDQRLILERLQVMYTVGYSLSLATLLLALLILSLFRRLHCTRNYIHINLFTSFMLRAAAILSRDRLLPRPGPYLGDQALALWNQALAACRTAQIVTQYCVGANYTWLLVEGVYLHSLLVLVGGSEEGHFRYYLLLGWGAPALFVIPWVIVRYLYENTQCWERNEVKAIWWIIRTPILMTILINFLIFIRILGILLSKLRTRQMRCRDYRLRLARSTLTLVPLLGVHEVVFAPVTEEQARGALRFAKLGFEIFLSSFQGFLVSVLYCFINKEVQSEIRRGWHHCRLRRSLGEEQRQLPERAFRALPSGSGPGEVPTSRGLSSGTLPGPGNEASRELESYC", "assay": "Binding assay, displacement of [125I]GIP from HEK-293 membranes over-expressing GIPR (SPA)", "settings": "[125I]GIP displacement", "procedure,_shortened": "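Membranes from HEK-293 cells over-expressing human GIPR or GLP-1R, isolated by homogenising, sonicating and ultracentrifuging at 100000×g into HEPES/EDTA/NaCl buffer with protease inhibitors, were used for binding.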"}, "[5]": {"molecular_target": "T2, human GIP receptor (hGIPR)", "assay": "In vitro cellular cAMP assay for GIP receptor efficacy (HEK-293 cell line over-expressing receptor)", "type": "cell-based", "settings": "EC50 hGIPR 0.1% BSA, HEK-293, 0.1% BSA"}, "human GIP receptor [6]": {"molecular_target": "T3, human GIP receptor (human, UniProt P48546 22-466)", "T3 sequence (looked up)": "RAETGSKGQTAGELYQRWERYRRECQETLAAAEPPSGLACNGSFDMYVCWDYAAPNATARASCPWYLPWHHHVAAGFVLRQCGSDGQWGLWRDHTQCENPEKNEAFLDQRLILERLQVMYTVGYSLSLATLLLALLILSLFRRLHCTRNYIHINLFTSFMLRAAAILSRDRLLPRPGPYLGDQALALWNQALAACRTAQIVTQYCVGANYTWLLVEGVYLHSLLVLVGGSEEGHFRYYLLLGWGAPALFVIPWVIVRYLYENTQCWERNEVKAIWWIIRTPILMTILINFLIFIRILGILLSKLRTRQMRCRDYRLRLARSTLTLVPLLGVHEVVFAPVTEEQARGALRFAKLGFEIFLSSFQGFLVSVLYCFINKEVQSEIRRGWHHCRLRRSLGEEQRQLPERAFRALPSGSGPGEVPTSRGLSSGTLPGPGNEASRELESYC", "assay": "cell-based or functional assay"}, "human GLP-1 receptor": {"molecular_target": "human GLP-1 receptor (human, UniProt P43220 24-463)", "assay": "cell-based or functional assay"}, "human GIP receptor [7]": {"molecular_target": "T3, human GIP receptor", "assay": "cell-based or functional assay", "remark": "listed apart in the source"}}, "note": "Numbered stars: 1 amine (or outer) side, 2 acyl side, 3 side chain; on linkers, the order of the positions; unused ones are H or OH. Square brackets hold non-standard residues; d marks the D form. Side chains are listed from the residue outwards. Ends that are not written are not given here. Peptide text beside a SMILES is read from it. * marks the point of attachment. C18 diacid = O=C(O)CCCCCCCCCCCCCCCCC(=O)*; γGlu = O=C(O)[C@H](CCC(=O)[*:2])N[*:1]; AEEA = NCCOCCOCC(=O)O; Aib = CC(C)(N)C(=O)O"}
{"molecule": "CC[C@H](C)[C@H](NC(=O)[C@H](Cc1ccccc1)NC(=O)[C@H](CCC(=O)O)NC(=O)[C@H](CCC(=O)O)NC(=O)[C@H](CCC(N)=O)NC(=O)[C@H](Cc1c[nH]cn1)NC(=O)[C@@H](NC(=O)[C@H](CCCNC(=N)N)NC(=O)[C@H](CC(=O)O)NC(=O)[C@H](CCCCNC(=O)COCCOCCNC(=O)COCCOCCNC(=O)CC[C@H](NC(=O)CCCCCCCCCCCCCCCCC(=O)O)C(=O)O)NC(=O)C(C)(C)NC(=O)[C@@H](NC(=O)[C@H](CO)NC(=O)[C@H](CC(C)C)NC(=O)[C@H](CC(=O)O)NC(=O)[C@H](CO)NC(=O)[C@@H](NC(=O)[C@H](Cc1ccccc1)NC(=O)[C@@H](NC(=O)CNC(=O)[C@H](CCC(=O)O)NC(=O)C(C)(C)NC(=O)[C@@H](N)Cc1ccc(O)cc1)[C@@H](C)O)[C@@H](C)CC)[C@@H](C)CC)[C@@H](C)CC)C(=O)N[C@@H](CCC(=O)O)C(=O)N[C@@H](Cc1c[nH]c2ccccc12)C(=O)N[C@@H](CC(C)C)C(=O)N[C@@H](CC(C)C)C(=O)N[C@@H](C)C(=O)N[C@@H](CCC(N)=O)C(=O)N[C@@H](CCC(=O)O)C(=O)N1CCC[C@H]1C(=O)N[C@@H](CO)C(=O)N[C@@H](CO)C(=O)NCC(=O)N[C@@H](C)C(=O)N1CCC[C@H]1C(=O)N1CCC[C@H]1C(=O)N1CCC[C@H]1C(=O)N[C@@H](CO)C(N)=O", "note": "[SEQ ID NO: 27, H2N-Y-Aib-E-G-T-F-I-S-D-L-S-I-Aib-K[{AEEA}2-gGlu-C18OH]-DRIHQEEFIEWLLAQEPSSGAPPPS-NH2] (H-Y[Aib]EGTFISDLSI[Aib]K([AEEA-AEEA-γGlu-C18 diacid])DRIHQEEFIEWLLAQEPSSGAPPPS-NH2)", "values": [{"measurement": "EC50", "setting": "human GIP receptor [1]; read-out: hGIPR EC50", "result": 0.6, "unit": "nM"}, {"measurement": "Emax", "setting": "human GIP receptor [1]; read-out: hGIPR Emax", "result": 116, "unit": "%"}, {"measurement": "EC50", "setting": "[2]", "result": "> 10", "unit": "nM"}, {"measurement": "Soluble amount", "setting": "[3]; 24 h, pH 7.4", "result": ">8.4", "unit": "mg/mL"}, {"measurement": "solubility at 24 h", "setting": "[3]; pH 7.4, Soluble amount", "result": "> 9000", "unit": "µg/mL"}, {"measurement": "IC50", "setting": "[4]", "result": 0.7, "unit": "nM"}]}
{"molecule": "CC[C@H](C)[C@H](NC(=O)[C@H](Cc1ccccc1)NC(=O)[C@H](CCC(=O)O)NC(=O)[C@H](CCC(=O)O)NC(=O)[C@H](CCC(N)=O)NC(=O)[C@H](Cc1c[nH]cn1)NC(=O)[C@@H](NC(=O)[C@H](CCCNC(=N)N)NC(=O)[C@H](CC(=O)O)NC(=O)[C@H](CCCCNC(=O)COCCOCCNC(=O)COCCOCCNC(=O)CC[C@H](NC(=O)CCCCCCCCCCCCCCCCC(=O)O)C(=O)O)NC(=O)C(C)(C)NC(=O)[C@@H](NC(=O)[C@H](CO)NC(=O)[C@H](CC(C)C)NC(=O)[C@H](CC(=O)O)NC(=O)[C@H](CO)NC(=O)[C@@H](NC(=O)[C@H](Cc1ccccc1)NC(=O)[C@@H](NC(=O)CNC(=O)[C@H](CCC(=O)O)NC(=O)C(C)(C)NC(=O)[C@@H](N)Cc1ccc(O)cc1)[C@@H](C)O)[C@@H](C)CC)[C@@H](C)CC)[C@@H](C)CC)C(=O)N[C@@H](CCC(=O)O)C(=O)N[C@@H](Cc1c[nH]c2ccccc12)C(=O)N[C@@H](CC(C)C)C(=O)N[C@@H](CC(C)C)C(=O)N[C@@H](C)C(=O)N[C@@H](CCC(N)=O)C(=O)N[C@@H](CCC(=O)O)C(=O)NCC(=O)O", "note": "[SEQ ID NO: 14, H2N-Y-Aib-E-G-T-F-I-S-D-L-S-I-Aib-K[{AEEA}2-gGlu-C18OH]-D-R-I-H-Q-E-E-F-I-E-W-L-L-A-Q-E-G-OH] (H-Y[Aib]EGTFISDLSI[Aib]K([AEEA-AEEA-γGlu-C18 diacid])DRIHQEEFIEWLLAQEG-OH)", "values": [{"measurement": "EC50", "setting": "[5]", "result": 0.0757, "unit": "nM"}]}
{"molecule": "Y[Aib]EGTFISDLSI[Aib]K([AEEA-AEEA-γGlu-C18 diacid])DRIHQEEFIQWLLAQGPSSGAPPPS-NH2 (N-terminus assumed; SMILES CC[C@H](C)[C@H](NC(=O)[C@H](Cc1ccccc1)NC(=O)[C@H](CCC(=O)O)NC(=O)[C@H](CCC(=O)O)NC(=O)[C@H](CCC(N)=O)NC(=O)[C@H](Cc1c[nH]cn1)NC(=O)[C@@H](NC(=O)[C@H](CCCNC(=N)N)NC(=O)[C@H](CC(=O)O)NC(=O)[C@H](CCCCNC(=O)COCCOCCNC(=O)COCCOCCNC(=O)CC[C@H](NC(=O)CCCCCCCCCCCCCCCCC(=O)O)C(=O)O)NC(=O)C(C)(C)NC(=O)[C@@H](NC(=O)[C@H](CO)NC(=O)[C@H](CC(C)C)NC(=O)[C@H](CC(=O)O)NC(=O)[C@H](CO)NC(=O)[C@@H](NC(=O)[C@H](Cc1ccccc1)NC(=O)[C@@H](NC(=O)CNC(=O)[C@H](CCC(=O)O)NC(=O)C(C)(C)NC(=O)[C@@H](N)Cc1ccc(O)cc1)[C@@H](C)O)[C@@H](C)CC)[C@@H](C)CC)[C@@H](C)CC)C(=O)N[C@@H](CCC(N)=O)C(=O)N[C@@H](Cc1c[nH]c2ccccc12)C(=O)N[C@@H](CC(C)C)C(=O)N[C@@H](CC(C)C)C(=O)N[C@@H](C)C(=O)N[C@@H](CCC(N)=O)C(=O)NCC(=O)N1CCC[C@H]1C(=O)N[C@@H](CO)C(=O)N[C@@H](CO)C(=O)NCC(=O)N[C@@H](C)C(=O)N1CCC[C@H]1C(=O)N1CCC[C@H]1C(=O)N1CCC[C@H]1C(=O)N[C@@H](CO)C(N)=O, Synthetic peptide, 39 residues (Gln at 24))", "note": "[SEQ ID NO: 35]", "values": [{"measurement": "hGIPR EC50 (cAMP, human adipocytes)", "setting": "human GIP receptor [6]", "result": 1.3, "unit": "nM"}, {"measurement": "hGIPR Emax (cAMP, human adipocytes)", "setting": "human GIP receptor [6]", "result": 120, "unit": "%"}, {"measurement": "EC50 hGLP-1R 0.1% BSA (cAMP, HEK-293)", "setting": "human GLP-1 receptor", "result": "> 10", "unit": "nM"}, {"measurement": "EC50 hGIPR 0% HSA (cAMP, HEK-293)", "setting": "human GIP receptor [7]", "result": 0.00024, "unit": "nM"}, {"measurement": "EC50 hGIPR 0.1% BSA (cAMP, HEK-293)", "setting": "human GIP receptor [7]", "result": 0.0107, "unit": "nM"}]}
